Measured values published in PMC8571951, “An activity‐based bioprobe differentiates a novel small molecule inhibitor from a LOXL2 antibody and provides renewed promise for anti‐fibrotic therapeutic strategies” (Clinical and Translational Medicine, 2021).

Tests used:
[1] = system: streptozotocin and high fat diet-induced model of NASH; assay: Streptozotocin and high fat diet-induced mouse model of NASH; type: in vivo
Description: PXS-5338 was evaluated in a 14-week mouse model of NASH (Takakura, Koido et al. 2014), dosing therapeutically at 10 mg/kg from weeks 8-12 and increasing to 30 mg/kg from weeks 12-14. […] Telmisartan served as a positive pharmacological control.

[2] = target: T1, native LOXL2 protein in human plasma (Homo sapiens, UniProt Q9Y4K0); assay: PXS-5878/Simoa platform, residual LOXL2 activity in human plasma; type: biochemical; settings: human plasma incubated 30 min; read-out: IC50, inhibition of native LOXL2 in human plasma
T1 construct: from tissue; host or cells: human plasma (activity) and human serum (protein concentration) from clinical trial subjects
T1 sequence (Q9Y4K0 26-774): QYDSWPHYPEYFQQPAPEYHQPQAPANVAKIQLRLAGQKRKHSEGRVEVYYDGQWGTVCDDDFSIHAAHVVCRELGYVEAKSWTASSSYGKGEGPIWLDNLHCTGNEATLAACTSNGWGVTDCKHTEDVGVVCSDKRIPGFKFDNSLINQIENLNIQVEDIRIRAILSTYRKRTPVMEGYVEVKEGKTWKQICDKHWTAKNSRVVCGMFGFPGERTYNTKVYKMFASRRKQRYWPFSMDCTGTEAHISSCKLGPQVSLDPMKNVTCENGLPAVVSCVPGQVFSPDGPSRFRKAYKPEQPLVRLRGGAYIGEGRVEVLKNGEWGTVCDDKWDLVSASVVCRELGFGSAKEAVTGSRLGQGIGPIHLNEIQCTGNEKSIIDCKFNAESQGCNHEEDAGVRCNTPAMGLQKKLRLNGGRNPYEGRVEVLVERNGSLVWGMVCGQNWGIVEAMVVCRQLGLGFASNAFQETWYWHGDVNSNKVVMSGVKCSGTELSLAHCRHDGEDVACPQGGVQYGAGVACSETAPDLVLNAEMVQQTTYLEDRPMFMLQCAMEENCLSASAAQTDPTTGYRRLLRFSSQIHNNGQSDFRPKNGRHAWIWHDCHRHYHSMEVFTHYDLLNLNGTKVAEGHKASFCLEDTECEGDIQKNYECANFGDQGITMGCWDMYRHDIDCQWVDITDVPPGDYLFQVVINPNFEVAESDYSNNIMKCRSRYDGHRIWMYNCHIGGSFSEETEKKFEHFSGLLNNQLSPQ
Description: FIGURE 2 Characteristics of PXS‐5338 and inhibition of lysyl oxidase‐like 2 (LOXL2) enzymatic activity in vitro and in vivo. (A) Chemical structure of PXS‐5338. […] (B) Tissue levels of PXS‐5338 measured 1 and 4 h after a single oral dose of 30 mg/kg in the rat. […] Average data from three different animals. (C) Concentration‐dependent inhibition of native […] LOX and rh LOXL1‐4 in a standard Amplex Red assay with 30 min pre‐incubation; n ≥3 independent experiments, standard error of mean (SEM). (D) PXS‐5338 inhibits rh LOXL2 in a time‐dependent manner, with increasing potency observed upon longer incubation with the enzyme. LOXL2 activity data devised from Amplex Red assay using putrescine as substrate and varying pre‐incubation times; n ≥3 independent experiments, standard error of mean (SEM). […] AB0023 and the corresponding isotype control antibody GS834298 were kindly provided by Gilead. Concentration‐response curves for the pan‐LOX inhibitor BAPN and LOXL2‐selective inhibitor PXS‐5338 are included for comparison. Data represented as mean ± SD with n = 5/concentration. […] To enable translation of preclinical data into the clinic, human plasma was incubated with different concentrations of PXS‐5338 for 30 min and the PXS‐5878/Simoa® platform used to measure the residual activity. […]

[3] = 10 mg/kg weeks 8-12, 30 mg/kg weeks 12-14

IC50 [2]	Compound	Collagen content (hydroxyproline) [1, 3]	Fibrosis, fibrotic area (picrosirius red staining) [1, 3]	Hepatocyte ballooning [1, 3]	Immature and mature crosslinks (DHLNL and PYD) [1, 3]	NASH scoring ([1]; 10 mg/kg weeks 8-12, 30 mg/kg weeks 12-14, vs NASH group)
	CC(C)c1c(Cc2ccc(S(C)(=O)=O)nc2)c2ncccc2n1C/C(F)=C/CN [PXS-5338]	significant reduction in collagen content	significantly attenuated fibrosis	reduction in hepatocyte ballooning	reduction in immature and mature crosslinks	significantly decreased NASH scoring
37 nM	CC(C)c1c(Cc2ccc(S(C)(=O)=O)nc2)c2ncccc2n1C/C(F)=C/CN [PXS‐5338]					
